Consider one molecule from PMC11501026, “L-Arginine and asymmetric dimethylarginine (ADMA) transport across the mouse blood-brain and blood-CSF barriers: Evidence of saturable transport at both interfaces and CNS to blood efflux” (PLOS ONE, 2024).

Structures are written as SMILES.

The data set can be described thus: cross-inhibition, in situ perfusion: [^3H]-arginine with 0.5–500 μM unlabelled ADMA. The settings on record: male, mouse, 10 mins, Balb/c ♂, 5ml/min. The data set is classed as in vivo, mouse. The procedure:
Self-inhibition experiments were also performed. […] Cross-competition experiments were also performed.
The percentage change in the RTissue uptake values achieved in the absence or presence of an unlabelled inhibitor can be calculated by means of Eq 4.
%change=RTissue−RInhibition/RTissue×100 Eq 4
We define RInhibition as the RTissue uptake in the presence of an inhibitor in the artificial plasma.
A decrease in the uptake of radiolabelled solute in the presence of unlabelled inhibitor is indicative of a saturable influx transport system. Conversely, an increase in the uptake of radiolabelled solute in the presence of unlabelled inhibitor is indicative of a saturable efflux transport system.
Concentrations of ADMA were specifically selected to mimic plasma concentrations under normal conditions (0.5 μM), pathophysiological conditions (3.0 μM), and then supraphysiological concentrations (10, 100 and 500 μM).

On to `OC[C@H]1O[C@@](CO)(O[C@H]2O[C@H](CO)[C@@H](O)[C@H](O)[C@H]2O)[C@@H](O)[C@@H]1O` [[^14C]-sucrose, reference compound], for which the Kp at 10 min runs as follows: (BALB/c, other: in situ brain perfusion with artificial plasma, with unlabelled ADMA 500 µM, [3H] Arginine and [14C] Sucrose uptake, pellet, + 500µM un-labelled ADMA, mean) 0.00271; (BALB/c, thalamus, other: in situ brain perfusion with artificial plasma, with unlabelled ADMA 500 µM, [3H] Arginine and [14C] Sucrose uptake, thalamus, + 500µM un-labelled ADMA, mean) 0.034; (Balb/c, CSF, other: in situ brain perfusion, with unlabelled ADMA 100 µM, Arginine / Sucrose uptake, CSF, mean, [3H] Arginine + [14C] Sucrose + 100µM un-labelled ADMA, mean) 0.149; (Balb/c, caudate nucleus, other: in situ brain perfusion, with unlabelled ADMA 10 µM, Arginine / Sucrose uptake, caudate nucleus, mean, [3H] Arginine + [14C] Sucrose + 10 uM ADMA, mean) 0.0357; (Balb/c, cerebellum, other: in situ brain perfusion, with unlabelled ADMA 0.5 µM, cerebellum: [14C] Sucrose, + 0.5 uM ADMA, mean) 0.0327; (Balb/c, choroid plexus, other: in situ brain perfusion, with 0.5 µM unlabelled ADMA, choroid plexus: [14C] Sucrose, + 0.5 uM ADMA, mean) 0.162. For the same molecule, the Kp at 10 min is, setting by setting: (Balb/c, frontal cortex, other: in situ brain perfusion, with unlabelled ADMA 3 µM, Arginine / Sucrose uptake, frontal cortex, [3H] Arginine + [14C] Sucrose + 3 uM ADMA, single mice) 0.0326; (Balb/c, hypothalamus, other: in situ brain perfusion, with unlabelled ADMA 3 µM, Arginine / Sucrose uptake, hypothalamus, mean, [3H] Arginine + [14C] Sucrose + 3 uM ADMA, mean) 0.0456; (Balb/c, hypothalamus, other: in situ brain perfusion, with unlabelled ADMA 10 µM, Arginine / Sucrose uptake, hypothalamus, mean, [3H] Arginine + [14C] Sucrose + 10 uM ADMA, mean) 0.074; (Balb/c, hypothalamus, other: in situ brain perfusion, with unlabelled ADMA 100 µM, Arginine / Sucrose uptake, hypothalamus, mean, [3H] Arginine + [14C] Sucrose + 100µM un-labelled ADMA, mean) 0.0349; (Balb/c, pellet (cerebral capillary endothelial cells), other: in situ brain perfusion, with unlabelled ADMA 0.5 µM, pellet: [14C] Sucrose, + 0.5 uM ADMA, mean) 0.00977; (Balb/c, pineal gland, other: in situ brain perfusion, with unlabelled ADMA 10 µM, Arginine / Sucrose uptake, pineal gland, mean, [3H] Arginine + [14C] Sucrose + 10 uM ADMA, mean) 0.504. Further, the Kp at 10 min amounted to 0.13 (Balb/c, pituitary gland, other: in situ brain perfusion, with 0.5 µM unlabelled ADMA, pituitary gland: [14C] Sucrose, + 0.5 uM ADMA, mean); 0.146 (Balb/c, pituitary gland, other: in situ brain perfusion, with unlabelled ADMA 3 µM, Arginine / Sucrose uptake, pituitary gland, mean, [3H] Arginine + [14C] Sucrose + 3 uM ADMA, mean); 0.0597 (Balb/c, pons, other: in situ brain perfusion, with unlabelled ADMA 0.5 µM, pons: [14C] Sucrose, + 0.5 uM ADMA, mean); 0.0612 (Balb/c, pons, other: in situ brain perfusion, with unlabelled ADMA 3 µM, Arginine / Sucrose uptake, pons, mean, [3H] Arginine + [14C] Sucrose + 3 uM ADMA, mean); 0.0764 (Balb/c, pons, other: in situ brain perfusion, with unlabelled ADMA 10 µM, Arginine / Sucrose uptake, pons, mean, [3H] Arginine + [14C] Sucrose + 10 uM ADMA, mean); 0.0352 (Balb/c, thalamus, other: in situ brain perfusion, with unlabelled ADMA 10 µM, Arginine / Sucrose uptake, thalamus, mean, [3H] Arginine + [14C] Sucrose + 10 uM ADMA, mean).
